Results as given in ChEMBL document CHEMBL1201862, “PubChem BioAssay data set” (2004).
Calls of active or inactive are those of the source.

How the values were obtained:
[1] = biological target: Glucose-6-phosphate 1-dehydrogenase (Homo sapiens, UniProt P11413); test: human G6PD enzyme inhibitors, dose response, selectivity assay for P. falciparum G6PD inhibitor project, biochemical, fluorescence (AID 504792); format: functional
[2] = biological target: Keap1/Nrf2 (Homo sapiens, UniProt Q14145); test: Keap1-Nrf2 protein-protein interaction inhibitors, dose response, biochemical, fluorescence polarization, cherry-picked samples (AID 588683)
Sequence of Keap1/Nrf2 (Q16236 whole entry): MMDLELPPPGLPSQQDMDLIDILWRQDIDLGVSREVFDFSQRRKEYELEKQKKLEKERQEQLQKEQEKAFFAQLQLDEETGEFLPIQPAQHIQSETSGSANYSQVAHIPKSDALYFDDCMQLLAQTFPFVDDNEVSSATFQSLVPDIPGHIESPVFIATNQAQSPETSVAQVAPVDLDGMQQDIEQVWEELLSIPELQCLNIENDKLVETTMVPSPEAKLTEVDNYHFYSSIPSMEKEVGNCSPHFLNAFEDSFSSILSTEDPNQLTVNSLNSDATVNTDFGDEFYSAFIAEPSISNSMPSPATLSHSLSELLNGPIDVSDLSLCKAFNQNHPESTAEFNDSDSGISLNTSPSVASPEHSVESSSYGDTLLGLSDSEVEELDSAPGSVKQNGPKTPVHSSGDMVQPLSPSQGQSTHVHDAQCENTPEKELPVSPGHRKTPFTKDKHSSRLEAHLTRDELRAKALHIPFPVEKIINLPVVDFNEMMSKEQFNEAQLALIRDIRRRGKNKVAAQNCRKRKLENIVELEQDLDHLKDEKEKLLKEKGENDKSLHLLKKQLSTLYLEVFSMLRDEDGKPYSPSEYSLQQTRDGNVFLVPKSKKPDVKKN
Sequence of Keap1/Nrf2 (Q14145 whole entry): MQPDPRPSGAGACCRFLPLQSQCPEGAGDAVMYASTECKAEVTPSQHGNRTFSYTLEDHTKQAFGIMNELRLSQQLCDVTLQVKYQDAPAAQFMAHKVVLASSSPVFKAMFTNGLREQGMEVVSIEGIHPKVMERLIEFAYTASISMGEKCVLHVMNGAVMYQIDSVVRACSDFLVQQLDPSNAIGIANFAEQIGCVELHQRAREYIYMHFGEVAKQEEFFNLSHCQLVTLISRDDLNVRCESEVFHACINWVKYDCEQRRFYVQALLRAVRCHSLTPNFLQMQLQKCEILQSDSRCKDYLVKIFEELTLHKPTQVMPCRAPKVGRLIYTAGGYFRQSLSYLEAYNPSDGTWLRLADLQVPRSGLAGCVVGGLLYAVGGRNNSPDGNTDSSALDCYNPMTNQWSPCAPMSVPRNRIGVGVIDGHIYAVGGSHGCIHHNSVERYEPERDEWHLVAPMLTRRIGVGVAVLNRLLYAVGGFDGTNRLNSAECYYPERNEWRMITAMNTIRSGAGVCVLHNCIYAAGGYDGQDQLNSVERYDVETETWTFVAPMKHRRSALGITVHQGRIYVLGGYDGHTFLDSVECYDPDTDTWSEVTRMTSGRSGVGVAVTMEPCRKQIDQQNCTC

[3] = biological target: T1, Corticotropin-releasing factor receptor 2/Corticotropin-releasing factor-binding protein (Homo sapiens, UniProt P24387+Q13324); test: activators of CRF receptor 2 with binding protein – uHTS hits, confirmation (AID 602473); format: functional; conditions: read-out: EC50_Mean
T1 sequence (Q13324 whole entry): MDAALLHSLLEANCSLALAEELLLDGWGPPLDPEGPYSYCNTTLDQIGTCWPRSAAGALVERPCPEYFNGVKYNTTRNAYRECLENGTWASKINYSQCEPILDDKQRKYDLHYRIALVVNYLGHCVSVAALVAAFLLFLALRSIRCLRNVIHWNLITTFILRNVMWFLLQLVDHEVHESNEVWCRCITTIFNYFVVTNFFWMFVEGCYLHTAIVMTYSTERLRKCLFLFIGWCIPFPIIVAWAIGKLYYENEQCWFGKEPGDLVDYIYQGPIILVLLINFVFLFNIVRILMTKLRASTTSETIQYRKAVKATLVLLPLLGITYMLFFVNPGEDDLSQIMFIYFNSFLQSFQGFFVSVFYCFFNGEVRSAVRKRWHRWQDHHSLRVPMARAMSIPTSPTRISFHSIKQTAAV
T1 sequence (P24387 whole entry): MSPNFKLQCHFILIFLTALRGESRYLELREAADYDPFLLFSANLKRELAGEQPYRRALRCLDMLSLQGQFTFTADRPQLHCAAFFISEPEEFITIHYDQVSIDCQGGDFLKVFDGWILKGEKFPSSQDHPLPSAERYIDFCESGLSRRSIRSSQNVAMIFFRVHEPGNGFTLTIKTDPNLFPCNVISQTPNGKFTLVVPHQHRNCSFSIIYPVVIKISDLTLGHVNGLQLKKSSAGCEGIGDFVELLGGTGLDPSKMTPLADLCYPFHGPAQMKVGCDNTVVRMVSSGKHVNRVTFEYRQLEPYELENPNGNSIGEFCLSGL

[4] = biological target: T2, Rac GTPase-activating protein 1 (Homo sapiens, UniProt Q9H0H5); test: MgcRacGAP GTPase-activating activity inhibitors, confirmation, biochemical, ADP Hunter fluorescence, primary and confirmatory (AID 624330); format: functional
T2 sequence (Q9H0H5 whole entry): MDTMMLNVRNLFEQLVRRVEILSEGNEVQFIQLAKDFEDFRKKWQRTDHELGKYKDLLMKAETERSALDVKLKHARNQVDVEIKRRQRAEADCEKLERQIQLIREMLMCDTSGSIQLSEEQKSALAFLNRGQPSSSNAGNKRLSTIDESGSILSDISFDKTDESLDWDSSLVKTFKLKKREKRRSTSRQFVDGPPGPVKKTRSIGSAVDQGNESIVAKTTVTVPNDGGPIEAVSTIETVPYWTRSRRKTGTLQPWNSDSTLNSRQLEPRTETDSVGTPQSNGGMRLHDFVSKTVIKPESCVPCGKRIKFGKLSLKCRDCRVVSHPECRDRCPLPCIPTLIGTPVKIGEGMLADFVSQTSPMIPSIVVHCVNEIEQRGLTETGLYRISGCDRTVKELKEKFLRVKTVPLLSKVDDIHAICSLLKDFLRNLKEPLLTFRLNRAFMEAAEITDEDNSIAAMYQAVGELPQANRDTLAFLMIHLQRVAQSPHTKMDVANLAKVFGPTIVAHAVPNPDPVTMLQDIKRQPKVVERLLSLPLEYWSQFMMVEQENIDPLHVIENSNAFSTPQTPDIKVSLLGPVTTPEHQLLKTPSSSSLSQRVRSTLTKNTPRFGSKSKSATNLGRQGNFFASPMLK

[5] = test system: Escherichia coli; test: microbe, parasite or virus in culture
[6] = test system: HeLa; test: HeLa cell cytotoxicity, dose response, cytotoxicity control for MITF activator project, CellTiter-Glo luminescence, cherry-pick samples (AID 540259); format: functional, cell-based; conditions: Homo sapiens
[7] = test system: Escherichia coli; test: microbe, parasite or virus in culture; remark: listed apart in the source
[8] = test system: HEK293; test: cells; format: functional, cell-based; conditions: Homo sapiens
[9] = biological target: T3, Nuclear receptor subfamily 0 group B member 1 (Homo sapiens, UniProt P51843); test: Luminescence-based cell-based high throughput dose response assay for inhibitors of the orphan nuclear receptor subfamily 0, group B, member 1 (DAX1; NR0B1). [Related pubchem assays (depositor defined):AID504766, AID504790]; format: functional
T3 sequence (P51843 whole entry): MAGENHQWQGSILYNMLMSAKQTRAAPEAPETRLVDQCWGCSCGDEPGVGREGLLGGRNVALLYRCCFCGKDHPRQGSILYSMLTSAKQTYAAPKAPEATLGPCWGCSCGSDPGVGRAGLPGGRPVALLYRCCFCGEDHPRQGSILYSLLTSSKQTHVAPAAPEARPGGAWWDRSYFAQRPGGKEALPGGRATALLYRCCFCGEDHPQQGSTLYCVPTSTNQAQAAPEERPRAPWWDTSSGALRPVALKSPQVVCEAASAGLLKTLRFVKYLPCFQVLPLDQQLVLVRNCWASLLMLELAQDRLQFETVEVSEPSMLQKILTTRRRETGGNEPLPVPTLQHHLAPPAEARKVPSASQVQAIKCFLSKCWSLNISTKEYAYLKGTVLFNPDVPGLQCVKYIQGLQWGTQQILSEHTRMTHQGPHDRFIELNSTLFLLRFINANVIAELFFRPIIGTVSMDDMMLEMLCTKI

[10] = NIH-3T3 fibroblast cytotoxicity, dose response, cytotoxicity control, cell-based, fluorescence, Alamar Blue, secondary assay (AID 2327); format: functional;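 note: NIH-3T3 mouse fibroblasts cultured with fluconazole at 8 µg/mL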
[11] = biological target: Beta Lactamase (Pseudomonas aeruginosa, UniProt Q932Y6); test: beta-lactamase reporter inhibitor potency, dose response, artefact control for TLR9-MyD88 binding inhibitor project, BLA reporter cells, FRET fluorescence (AID 588341); format: cell-based;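 note: cell based assay in CHO-K1 cells stably expressing beta-lactamase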
Sequence of Beta Lactamase (Q932Y6 whole entry, the tested form may be a part): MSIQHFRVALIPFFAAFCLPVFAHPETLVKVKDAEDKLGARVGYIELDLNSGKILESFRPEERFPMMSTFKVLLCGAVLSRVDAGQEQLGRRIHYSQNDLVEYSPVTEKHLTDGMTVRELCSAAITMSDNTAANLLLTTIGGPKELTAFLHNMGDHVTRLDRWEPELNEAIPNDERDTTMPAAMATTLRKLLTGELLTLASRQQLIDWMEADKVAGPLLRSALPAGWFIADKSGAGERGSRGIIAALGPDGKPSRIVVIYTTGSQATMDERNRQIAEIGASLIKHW

[12] = test system: CHO; test: cytotoxicity in TLR9-MyD88 CHO cells, dose response, cytotoxicity control for TLR9-MyD88 binding inhibitor project, cell-based, luminescence (AID 588339); format: functional, hamster; conditions: Cricetulus griseus;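 note: CHO cells stably coexpressing TLR9 and MyD88 fusions from primary screen; compound exposure lasted 48 hours before viability readout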
[13] = biological target: Dual specificity tyrosine-phosphorylation-regulated kinase 1A (Rattus norvegicus, UniProt Q63470); format: biochemical, Homo sapiens
[14] = biological target: Beta-2 adrenergic receptor (Homo sapiens, UniProt P07550); test: beta2AR agonists driving receptor internalization, dose response, cell-based, FAP fluorogen, flow cytometry, cherry pick 1 (AID 588763); format: functional
Sequence of Beta-2 adrenergic receptor (P07550 whole entry): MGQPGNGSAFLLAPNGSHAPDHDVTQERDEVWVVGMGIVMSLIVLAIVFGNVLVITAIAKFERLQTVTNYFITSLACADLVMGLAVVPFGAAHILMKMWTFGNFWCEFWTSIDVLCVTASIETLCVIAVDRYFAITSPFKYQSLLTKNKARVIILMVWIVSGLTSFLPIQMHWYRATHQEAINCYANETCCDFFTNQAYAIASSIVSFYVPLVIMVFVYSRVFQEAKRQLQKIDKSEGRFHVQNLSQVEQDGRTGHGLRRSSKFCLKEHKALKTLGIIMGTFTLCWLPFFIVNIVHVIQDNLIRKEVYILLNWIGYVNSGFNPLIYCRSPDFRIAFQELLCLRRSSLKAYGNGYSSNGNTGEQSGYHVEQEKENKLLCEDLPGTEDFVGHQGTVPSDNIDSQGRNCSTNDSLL

[15] = biological target: T4, Polyadenylate-binding protein 1 (Homo sapiens, UniProt P11940); test: PABP1 MLLE–PAM2 interaction inhibitors, dose response, miRNA deadenylation inhibitor project, biochemical, fluorescence polarization, Cy5-PAM2 peptide, secondary (AID 602260); format: functional; conditions: read-out: IC50_Mean
T4 sequence (P11940 whole entry): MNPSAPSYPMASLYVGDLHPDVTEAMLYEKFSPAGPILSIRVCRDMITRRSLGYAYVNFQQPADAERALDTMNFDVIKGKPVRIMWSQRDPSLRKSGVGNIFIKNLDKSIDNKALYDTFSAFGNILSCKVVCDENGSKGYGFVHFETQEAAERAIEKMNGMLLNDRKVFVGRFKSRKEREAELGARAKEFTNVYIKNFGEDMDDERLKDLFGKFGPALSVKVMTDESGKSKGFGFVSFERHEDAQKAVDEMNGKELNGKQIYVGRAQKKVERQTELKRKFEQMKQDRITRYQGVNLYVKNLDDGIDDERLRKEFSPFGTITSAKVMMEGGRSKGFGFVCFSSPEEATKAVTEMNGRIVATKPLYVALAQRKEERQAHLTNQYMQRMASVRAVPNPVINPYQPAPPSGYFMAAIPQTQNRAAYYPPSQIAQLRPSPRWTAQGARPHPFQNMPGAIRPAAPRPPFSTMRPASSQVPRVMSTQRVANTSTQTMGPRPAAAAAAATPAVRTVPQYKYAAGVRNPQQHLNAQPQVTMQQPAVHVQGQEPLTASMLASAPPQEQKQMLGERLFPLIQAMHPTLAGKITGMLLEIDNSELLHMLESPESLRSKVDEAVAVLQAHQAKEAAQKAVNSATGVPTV

[16] = biological target: T4, Polyadenylate-binding protein 1; test: PABP1 MLLE–PAM2 binding inhibitor potency, dose response, biochemical, fluorescence polarization, FITC-PAM2 peptide (AID 602259); format: functional; conditions: read-out: IC50_Mean
[17] = biological target: Large T antigen (Simian virus 40, UniProt P03070); format: functional, Betapolyomavirus macacae;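 note: Confirmatory-stage PubChem screen for compounds that inhibit SV40 T antigen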
Sequence of Large T antigen (P03070 whole entry): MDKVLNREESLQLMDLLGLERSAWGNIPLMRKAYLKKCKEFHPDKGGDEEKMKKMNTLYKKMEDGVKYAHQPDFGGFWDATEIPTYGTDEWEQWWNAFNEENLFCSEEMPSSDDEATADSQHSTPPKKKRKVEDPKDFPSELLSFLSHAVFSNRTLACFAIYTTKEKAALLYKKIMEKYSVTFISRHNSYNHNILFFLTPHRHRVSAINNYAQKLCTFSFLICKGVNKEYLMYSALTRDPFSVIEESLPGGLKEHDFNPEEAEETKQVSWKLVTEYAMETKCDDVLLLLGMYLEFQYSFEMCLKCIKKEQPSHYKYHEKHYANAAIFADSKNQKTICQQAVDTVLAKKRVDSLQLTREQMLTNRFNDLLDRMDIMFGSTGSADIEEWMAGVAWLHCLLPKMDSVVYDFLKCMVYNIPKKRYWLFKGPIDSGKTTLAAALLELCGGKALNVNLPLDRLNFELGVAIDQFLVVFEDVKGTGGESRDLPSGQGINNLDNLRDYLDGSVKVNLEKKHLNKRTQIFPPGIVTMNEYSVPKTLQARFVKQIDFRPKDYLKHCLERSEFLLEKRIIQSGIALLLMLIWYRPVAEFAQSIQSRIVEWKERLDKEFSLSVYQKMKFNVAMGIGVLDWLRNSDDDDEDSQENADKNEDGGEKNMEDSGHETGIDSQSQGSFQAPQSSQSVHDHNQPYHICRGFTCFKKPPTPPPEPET

[18] = Luminescence Cell-Based Dose Response HTS to Identify Activators of Luciferase Translation or Activity in H4 […] Cells. [Related pubchem assays: 1829 (Project Summary), 1814 (Primary HTS)]; format: functional
[19] = test system: Vero; test: Vero cell cytotoxicity, cytotoxicity control for flavivirus capping enzyme inhibitors (AID 588742); format: functional; conditions: Chlorocebus sabaeus
[20] = test system: H4; test: Luminescence Cell-Based Dose Response HTS to Identify Activators of 5'UTR Stem-Loop Driven Prion Protein mRNA Translation in H4 Neuroglioblastoma Cells. [Related pubchem assays: 1829 (Project Summary), 1814 (Primary HTS)]; format: functional; conditions: Homo sapiens
[21] = biological target: Genome polyprotein (dengue virus type 2, UniProt P29990); test: Dengue-2 NS5 methyltransferase inhibitors, primary screen, biochemical, confirmation dose response (AID 588689); format: functional
[22] = test system: INS1; test: beta cell apoptosis inhibitors, cytokine rescue, dose response, luminescence, retest (AID 449756); format: functional, cell-based; conditions: Rattus norvegicus;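 note: cell death triggered by IL-1 beta plus TNF-alpha plus IFN-gamma mixture; protective hits raise ATP signal compared with cytokine alone wells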
[23] = Luminescence Cell-Based Dose Confirmation HTS to Identify Activators of 5'UTR Stem-Loop Driven Alpha-Synuclein mRNA Translation in H4 Neuroglioblastoma Cells. [Related pubchem assays: 1829 (Project Summary), 1814 (Primary HTS)]; format: functional
[24] = biological target: Photoreceptor-specific nuclear receptor (Homo sapiens, UniProt Q9Y5X4); format: functional, cell-based;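 note: CHO-S cells with Gal4-NCOR and VP16-NR2E3 two-hybrid luciferase reporter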
Sequence of Photoreceptor-specific nuclear receptor (Q9Y5X4 whole entry, the tested form may be a part): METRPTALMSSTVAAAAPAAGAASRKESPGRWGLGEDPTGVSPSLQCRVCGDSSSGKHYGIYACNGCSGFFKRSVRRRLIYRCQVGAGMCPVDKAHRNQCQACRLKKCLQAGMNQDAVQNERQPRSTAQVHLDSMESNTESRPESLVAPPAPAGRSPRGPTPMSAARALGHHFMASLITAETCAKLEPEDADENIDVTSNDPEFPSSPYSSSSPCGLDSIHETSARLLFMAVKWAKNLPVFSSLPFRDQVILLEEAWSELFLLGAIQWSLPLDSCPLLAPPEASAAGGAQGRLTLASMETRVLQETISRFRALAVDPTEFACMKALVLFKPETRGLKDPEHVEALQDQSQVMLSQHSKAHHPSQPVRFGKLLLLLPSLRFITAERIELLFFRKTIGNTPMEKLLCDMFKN

[25] = test system: H9c2; test: cells; format: functional, cell-based; conditions: Rattus norvegicus, H9c2, Myocardium;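 note: confirmatory concentration-response retest of ultra-high-throughput screening hits for modulation of myocardial damage; cell death induced by hydrogen peroxide oxidative stress; compound pretreatment for 60 min then peroxide exposure for 2 h; potency is for protecting the cells against peroxide damage rather than for killing them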
[26] = biological target: T5, Ubiquitin-conjugating enzyme E2 N (Homo sapiens, UniProt P61088); format: functional;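 note: Dose-response confirmation in a TR-FRET assay detecting UBC13-driven polyubiquitin chain formation, inhibition measured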
T5 sequence (P61088 whole entry): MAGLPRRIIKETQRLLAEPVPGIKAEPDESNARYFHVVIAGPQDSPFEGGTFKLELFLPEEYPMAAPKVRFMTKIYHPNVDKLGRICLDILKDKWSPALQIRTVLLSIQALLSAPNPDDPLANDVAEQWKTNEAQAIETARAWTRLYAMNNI

Sequence of Glucose-6-phosphate 1-dehydrogenase (P11413 whole entry): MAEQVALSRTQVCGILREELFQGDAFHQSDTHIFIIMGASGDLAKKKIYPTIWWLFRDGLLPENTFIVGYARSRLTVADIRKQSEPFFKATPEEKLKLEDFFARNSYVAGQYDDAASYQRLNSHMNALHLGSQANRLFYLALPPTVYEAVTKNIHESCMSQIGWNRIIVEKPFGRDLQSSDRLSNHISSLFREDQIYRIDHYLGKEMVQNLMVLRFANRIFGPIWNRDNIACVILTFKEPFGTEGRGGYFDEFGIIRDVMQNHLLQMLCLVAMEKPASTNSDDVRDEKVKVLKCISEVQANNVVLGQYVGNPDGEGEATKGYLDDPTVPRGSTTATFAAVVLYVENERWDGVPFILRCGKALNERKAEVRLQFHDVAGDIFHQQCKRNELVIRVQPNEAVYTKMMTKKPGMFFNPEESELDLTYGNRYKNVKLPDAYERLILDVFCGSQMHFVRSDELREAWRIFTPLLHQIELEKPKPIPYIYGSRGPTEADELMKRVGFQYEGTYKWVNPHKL

## Nc1ccc2c3c(cccc13)-c1ccccc1-2
[1]
  IC50: > 80 µM (inactive)
[2]
  AC50: 2.01 µM (active)
[3]
  EC50: 4.79 µM (active)
[4]
  IC50: 39.2 µM (active)

## CCCCCN(C(=O)CCC(=O)OCC(=O)N(C)Cc1ccc(C)cc1)c1c(N)n(CCCC)c(=O)[nH]c1=O
[5]
  AC50: > 380 µM (inactive)

## C/C(Cl)=C/CSc1nn2c(=O)c3ccccc3nc2s1
[6]
  AC50: 36.3 µM (active)

## COc1ccccc1Nc1nc(C)cs1
[5]
  AC50: 60.7 µM (active)
[7]
  AC50: 26.8 µM (active)

## CCc1nc(NC(C)(C)C)c2cnn(-c3ccccc3)c2n1
[6]
  AC50: 134 µM (active)

## c1cnc(SCCOc2ccc3c(c2)CCC3)nc1
[8]
  IC50: > 67.6 µM (inactive)
[9]
  IC50: > 67.6 µM (inactive)
[10]
  EC50: > 160 µM (inactive)

## Brc1cc(Br)c2nc(-c3ccc(N4CCOCC4)cc3)ccc2c1
[11]
  IC50: 2.37 µM (active)
[12]
  IC50: > 49.8 µM (inactive)

## N#C/C(=C\c1cn[nH]c1-c1ccc(Cl)cc1)C(=O)NCc1ccccc1
[5]
  AC50: 300 µM (active)
[7]
  AC50: 12.4 µM (active)

## Oc1ccc(Nc2nc(-c3ccccc3)nc3ccccc23)cc1
[13]
  AC50: 0.461 µM (active)

## NC(=O)CC(NC(=O)c1cccc(Br)c1)c1ccc(N2CCN(c3ccccn3)CC2)c([N+](=O)[O-])c1 (configuration not stated)
[13]
  AC50: 66.8 µM (active)
[14]
  EC50: 225 nM (active)

## Oc1cccc(NC(=S)N=Nc2c(O)[nH]c3ccccc23)c1
[15]
  IC50: > 66 µM (inactive)
[13]
  AC50: 12.4 µM (active)
[16]
  IC50: > 66 µM (inactive)

## CN(C(=O)c1cc2sccc2n1C)C1CCCCC1
[6]
  AC50: 218 µM (active)

## CCN(CC)c1ccc(-c2nc3cnccn3c2NC2CCCC2)cc1
[17]
  IC50: 21.9 µM (active)
[11]
  IC50: 5.29 µM (active)
[12]
  IC50: > 16.6 µM (inactive)

## COC(=O)/C(=C1\Oc2ccc(C(C)(C)C)cc2S1)C(F)(F)F
[6]
  AC50: 57.7 µM (active)

## O=C1NC(=O)C2C1C(c1ccc([N+](=O)[O-])cc1)=NN2Cc1ccccc1 (configuration not stated)
[11]
  IC50: 10.3 µM (inactive)
[12]
  IC50: > 49.8 µM (inactive)

## NC(=O)CC(NC(=O)c1ccc(Br)cc1)c1ccc(N2CCN(c3ccccn3)CC2)c([N+](=O)[O-])c1 (configuration not stated)
[14]
  EC50: 213 nM (active)

## CC(=O)c1csc(Nc2ccccc2Cl)n1
[8]
  IC50: > 67.6 µM (inactive)
[9]
  IC50: > 67.6 µM (inactive)

## O=[N+]([O-])c1ccc(-[n+]2ccc3ccccc3c2)c([N+](=O)[O-])c1
[18]
  EC50: 11.4 µM (active)
[19]
  CC50: 24.9 µM (active)
[17]
  IC50: 79.1 µM (active)
[20]
  EC50: > 120 µM (not active)
[21]
  IC50: > 100 µM (active)
[1]
  IC50: > 80 µM (inactive)
[22]
  AC50: 3.36 µM (active)
[14]
  EC50: 10200 nM (inactive)
[23]
  EC50: > 120 µM (not active)

## Cc1ccc(S(=O)(=O)c2ccc([N+](=O)[O-])o2)cc1
[24]
  IC50: 2.9 µM (active)
[11]
  IC50: 11.2 µM (inactive)
[12]
  IC50: 0.745 µM (active)

## CC(=O)Nc1ccc(S(=O)(=O)N(Cc2cccnc2)Cc2cc3ccccc3nc2O)cc1
[14]
  EC50: 801 nM (active)
[25]
  IC50: > 79 µM (inactive)

## COC(=O)c1c(-c2ccc(S(C)(=O)=O)cc2)sc2ccc(OC)cc12
[26]
  IC50: > 20 µM (inactive)
[6]
  AC50: 28 µM (active)

## CC(=O)NC(Cc1c[nH]c2ccccc12)C(=O)O (configuration not stated)
[8]
  IC50: > 67.6 µM (inactive)
[9]
  IC50: > 67.6 µM (inactive)

## Cc1cc(C)c2c(N)c(C(=O)N/N=C/c3ccccc3)sc2n1
[8]
  IC50: > 67.5 µM (inactive)
[9]
  IC50: > 67.5 µM (inactive)

## O=C(O)c1ccc(/C=N/Nc2nc3ccccc3[nH]2)cc1
[8]
  IC50: > 67.6 µM (inactive)
[9]
  IC50: > 67.6 µM (inactive)

## COc1ccc(C(=O)/C=C/c2ccc(N(C)C)cc2)c(OC)c1
[11]
  IC50: 4.71 µM (active)
[12]
  IC50: > 49.8 µM (inactive)

## CS(=O)(=O)c1ccc([C@@H](O)[C@@H](CF)NC(=O)C(Cl)Cl)cc1 [FLORFENICOL]
[5]
  AC50: 3.83 µM (active)
